Measured values reported in US20160030391A1, “METHODS AND COMPOSITIONS FOR IMPROVING COGNITIVE FUNCTION” (THE JOHNS HOPKINS UNIVERSITY, priority 2013, published 2016).

Columns and labels:
[1] = tested on: entorhinal cortex of aMCI subjects; test: fMRI activity in entorhinal cortex during lure stimuli correctly identified as similar; format: in vivo, human; details: levetiracetam 125 mg twice a day for two weeks vs placebo
From the text: As described above, the drug treatment period is the two weeks preceding Visit 1 or 2 (with the two week period preceding the other Visit being the placebo phase). […] Imaging data are obtained through high-resolution methods developed in the Stark laboratory. Data are collected on a Phillips 3 Tesla scanner (Eindhoven, The Netherlands) equipped with an 8-channel SENSE (Sensitivity Encoding) head coil, located at the F.M. Kirby Research Center for Functional Brain Imaging at the Kennedy Krieger Institute (Baltimore, Md.). High-resolution echo-planar images are collected using an acquisition matrix of 64×64, a repetition time of 1500 milliseconds, an echo time of 30 milliseconds, a […] of 70 degrees, a SENSE factor of 2, and an isotropic resolution of 1.5 mm×1.5 mm x 1.5 mm with no gap. Nineteen oblique slices are acquired parallel to the principal longitudinal axis of the hippocampus and covered the entire medial temporal lobe region bilaterally. […] Group data are analyzed using a two-way Analysis of Variance (ANOVA) with trial types and group as fixed factors, and subject as a random factor nested within group. […] The activity of the subject's medial temporal lobe is measured by functional MRI during the subject's participation in an explicit 3-alternative forced choice task, where participants view novel, repeated and similar (“lure”) stimuli. […]

[2] = tested on: aMCI subjects; test: explicit 3-alternative forced choice task; format: in vivo, human
From the text: See Folstein et al., J Psychiatric Res 12: 189-98, (1975); Robbins et al., Dementia 5: 266-81, (1994); Rey, L′examen clinique en psychologie, (1964); Kluger et al., J Geriatr Psychiatry Neurol 12:168-79, (1999); Marquis et al., 2002 and Masur et al., 1994. Also see Buchanan, R. W., Keefe, R. S. E., Umbricht, D., Green, M. F., Laughren, T., and Marder, S. R. (2011) The FDA-NIMH-MATRICS guidelines for clinical trial design of cognitive-enhancing drugs: what do we know 5 years later? Schizophr. Bull. 37, 1209-1217. Another example of a cognitive test in humans is the explicit 3-alternative forced choice task. In this test, subjects are presented with color photographs of common objects consisting of a mix of three types of image pairs: similar pairs, identical pairs and unrelated foils. The second of the pair of similar objects is referred to as the “lure”. These image pairs are fully randomized and presented individually as a series of images. Subjects are instructed to make a judgment as to whether the objects seen are new, old or similar. A “similar” response to the presentation of a lure stimulus indicates successful memory retrieval by the subject.
The activity of the subject's medial temporal lobe is measured by functional MRI during the subject's participation in an explicit 3-alternative forced choice task, where participants view novel, repeated and similar (“lure”) stimuli. The Psychophysics Toolbox extensions in Matlab 7.0 (The MathWorks, Natick, Mass.) is used for stimulus presentation and behavioral data collection. Stimuli are color photographs of common objects. Each participant undergoes a series of testing runs during the functional imaging sessions, each run consisting of a mix of three types of image pairs: similar pairs, identical pairs and unrelated foils. These image pairs are fully randomized throughout the run and presented individually as a series of images (see FIG. 10A). Participants are instructed to make a judgment as to whether each object seen is new, old or similar. […]

[3] = tested on: aMCI subjects; test: Buschke Selective Reminding Test - Delayed Recall; format: in vivo, human; details: levetiracetam 125 mg twice a day for two weeks
[4] = tested on: aMCI subjects; test: Verbal Paired Associates Test - Recognition; format: in vivo, human; details: levetiracetam 125 mg twice a day for two weeks
From the text: Breaks are provided to the subject as needed.

[5] = tested on: Dentate Gyrus/CA3 region of aMCI patients; test: fMRI activity in DG/CA3 during lure stimuli correctly identified as similar; format: in vivo, human; details: aMCI subjects
[6] = levetiracetam blood plasma levels in aged-impaired rats; format: in vivo; details: rat, 60 mg/kg/day, 28-day treatment, read-out: mean levetiracetam blood plasma level
From the text: Rats: Blood was drawn from aged-impaired rats by cardiac puncture during perfusion after a 28-day levetiracetam treatment period and sent for analysis of levetiracetam plasma levels by MedTox Laboratories in St. Paul, Minn.

[7] = levetiracetam 62.5 mg BID for two weeks
[8] = levetiracetam 125 mg twice a day for two weeks vs placebo
[9] = levetiracetam 250 mg BID for two weeks

CC[C@@H](C(N)=O)N1CCCC1=O [levetiracetam, (2S)-2-(2-oxopyrrolidin-1-yl)butanamide]
EC activity during memory judgments (fMRI) [1]: increases EC activity | performance in the explicit 3-alternative forced choice task [2, 7]: improves significantly | performance in the explicit 3-alternative forced choice task [2, 8]: improves significantly | performance in the explicit 3-alternative forced choice task [2, 9]: does not significantly improve | performance in Buschke Selective Reminding Test—Delayed Recall [3]: fail to rescue performance | performance in Verbal Paired Associates Test—Recognition [4]: fail to rescue performance | DG/CA3 hyperactivity (fMRI) [5, 7]: does not significantly reduce | DG/CA3 activity during successful memory judgments (fMRI) [5, 8]: reduces DG/CA3 hyper-activity | DG/CA3 hyperactivity (fMRI) [5, 9]: does not significantly reduce | concentration at 28 days [6]: 22400 ng/mL
